Reference: patent US20250257055A1, “TERTIARY AMIDE DERIVATIVES SUBSTITUTED WITH 4-MEMBERED RING STRUCTURE” (Sumitomo Pharma Co., Ltd., priority 2024, published 2025)
Converted amounts (≈) assume the structure as drawn. Where two headings read alike, the source gives them in different places.

Assays:
[1] = Pharmacokinetic study in mice; format: in vivo; conditions: for AUC / clearance / half-life / Vd / Cmax: female, BALB/c (BALB/cAnN CrlCrlj), mouse, plasma; for Vd: read-out: Vdss
Method: The test compound was administered to 7-week-old female BALB/c (BALB/cAnN CrlCrlj) mice intravenously (dosage: 1 mg/kg) in a 50% PEG solution (0.01 mol/L HCl) or orally (dosage: 10 mg/kg) in a 0.5% methylcellulose aqueous solution, and blood was collected at the following times:
Intravenous administration: 5 min, 15 min, 30 min, 1 hr, 2 hr, 4 hr, 6 hr, and 24 hr after administration
Oral administration: 15 min, 30 min, 1 hr, 2 hr, 4 hr, 6 hr, and 24 hr after administration
The collected blood was centrifuged at 3000 rpm×10 min using a refrigerated centrifuge set at 4° C., and the obtained plasma was measured by LC-MS. A calibration curve was prepared from the value (peak ratio) obtained by dividing the peak area of the test substance by the peak area of the internal standard substance in MS and the concentration of the plasma calibration curve sample. The concentration in the sample was calculated from the peak ratio and the calibration curve of each sample.

recombinant p300 = recombinant p300 (Homo sapiens (Human), UniProt Q09472); assay: HAT activity inhibition experiment (SensoLyte HAT(p300) Assay Kit); format: biochemical; conditions: recombinant p300, histone H3 peptide, acetyl CoA
Method: The HAT activity inhibitory ability of HAT inhibitors was evaluated using SensoLyte HAT(p300) Assay Kit (ANASPEC, AS-72172). Specifically, 7.5 μL of the compound of Examples […] diluted with assay buffer was added to 7.5 μL of recombinant p300 solution diluted 10 times with assay buffer, and the mixture was incubated at room temperature for 10 minutes. 7.5 μL of acetyl CoA solution diluted 10 times with assay buffer and 15 μL of histone H3 peptide diluted 10 times with assay buffer were added thereto, and the mixture was incubated at 37° C. for 30 minutes. 37.5 μL of Stop Solution was added to stop the reaction. 75 μL of p300 Developer solution diluted 50 times with assay buffer was added, and the mixture was incubated at room temperature for 30 minutes under light-shielded conditions. The fluorescence at 513 nm when irradiated with 389 nm excitation light was measured using a multiplate reader.

[2] = Membrane permeability test (PAMPA); format: in vitro ADME
Method: The membrane permeability of the test compound was tested by parallel artificial membrane permeability assay (PAMPA) as follows. 200 μL of System solution (pION Inc.) containing the test compound and 4 μL of GIT Lipid-0 (pION Inc.) were added to the donor plate. 200 μL of Acceptor Sink Buffer (pION Inc.) was added to the acceptor plate. Both plates were overlapped and incubated at 37° C. for 4 hours, after which the UV of the solutions on the acceptor side and donor side was measured using a UV plate reader (190-500 nm). Compounds with poor UV absorption were measured using LC-MS. The permeability coefficient Pe (10^−6 cm/sec) of the drug was calculated using the following equation.

G-401 cells = assay: Cell proliferation inhibition experiment using G-401 cells; format: cell-based; conditions: Homo sapiens, 72 h, cultured for 3 days, CellTiter-Glo
Method: G-401 cells (derived from malignant rhabdoid tumor) were obtained from the American Type Culture Collection (ATCC). G-401 cells were cultured in McCoy's 5A medium containing 10% fetal bovine serum and 1% penicillin/streptomycin under conditions of 37° C. and 5% CO2.
(§1) 500 cells per well were seeded in a 384-well plate. One day after seeding, Examples 1 to 35 were added so that the final concentration of DMSO was 0.1%, and the cells were cultured for 3 days. After the culture was completed, the cell viability was measured using CellTiter-Glo Luminescent Cell Viability Assay (Promega, G7570).

Solubility test = format: physicochemical; conditions: aqueous buffer, thermodynamic from solid, 5° C., overnight
Method: The solubility was measured for Examples 7, 10, 20, 23, 24, and 30 to 34, Comparative Example 1, and Comparative Example 2. The test compound was added to 10 mmol/L glycine buffer (pH 2.0) and 10 mmol/L citrate buffer (pH 3.0), and the mixture was stored in a thermostatic chamber at 5° C. After standing overnight, the mixture was filtered through a membrane filter, and the concentration of the filtrate was measured by HPLC.

Kuramochi cells = assay: Cell proliferation inhibition experiment using Kuramochi cells; format: cell-based; conditions: 144 h, cultured for 6 days, CellTiter-Glo
Method: Kuramochi cells (derived from ovarian cancer) were obtained from JCRB (Japanese Collection of Research Bioresources) cell bank. Kuramochi cells were cultured in RPMI-1640 medium containing 10% fetal bovine serum and 1% penicillin/streptomycin under conditions of 37° C. and 5% CO2.
as §1, with “Examples 3, 7, 9, 10, 11, 20, 23” for “Examples 1”, “to 25, and 30 to 34” for “to 35”, “for 6” for “for 3”

[3] = pH 5.0, 37° C., read-out: pH 5.0 Pe
[4] = pH 7.4, 37° C., read-out: pH 7.4 Pe
[5] = 10 mmol/L citrate buffer (pH 3.0), read-out: Solubility in pH 3.0 buffer
[6] = 10 mmol/L glycine buffer (pH 2.0), read-out: Solubility in pH 2.0 buffer

recombinant p300, sequence (Q09472 whole entry): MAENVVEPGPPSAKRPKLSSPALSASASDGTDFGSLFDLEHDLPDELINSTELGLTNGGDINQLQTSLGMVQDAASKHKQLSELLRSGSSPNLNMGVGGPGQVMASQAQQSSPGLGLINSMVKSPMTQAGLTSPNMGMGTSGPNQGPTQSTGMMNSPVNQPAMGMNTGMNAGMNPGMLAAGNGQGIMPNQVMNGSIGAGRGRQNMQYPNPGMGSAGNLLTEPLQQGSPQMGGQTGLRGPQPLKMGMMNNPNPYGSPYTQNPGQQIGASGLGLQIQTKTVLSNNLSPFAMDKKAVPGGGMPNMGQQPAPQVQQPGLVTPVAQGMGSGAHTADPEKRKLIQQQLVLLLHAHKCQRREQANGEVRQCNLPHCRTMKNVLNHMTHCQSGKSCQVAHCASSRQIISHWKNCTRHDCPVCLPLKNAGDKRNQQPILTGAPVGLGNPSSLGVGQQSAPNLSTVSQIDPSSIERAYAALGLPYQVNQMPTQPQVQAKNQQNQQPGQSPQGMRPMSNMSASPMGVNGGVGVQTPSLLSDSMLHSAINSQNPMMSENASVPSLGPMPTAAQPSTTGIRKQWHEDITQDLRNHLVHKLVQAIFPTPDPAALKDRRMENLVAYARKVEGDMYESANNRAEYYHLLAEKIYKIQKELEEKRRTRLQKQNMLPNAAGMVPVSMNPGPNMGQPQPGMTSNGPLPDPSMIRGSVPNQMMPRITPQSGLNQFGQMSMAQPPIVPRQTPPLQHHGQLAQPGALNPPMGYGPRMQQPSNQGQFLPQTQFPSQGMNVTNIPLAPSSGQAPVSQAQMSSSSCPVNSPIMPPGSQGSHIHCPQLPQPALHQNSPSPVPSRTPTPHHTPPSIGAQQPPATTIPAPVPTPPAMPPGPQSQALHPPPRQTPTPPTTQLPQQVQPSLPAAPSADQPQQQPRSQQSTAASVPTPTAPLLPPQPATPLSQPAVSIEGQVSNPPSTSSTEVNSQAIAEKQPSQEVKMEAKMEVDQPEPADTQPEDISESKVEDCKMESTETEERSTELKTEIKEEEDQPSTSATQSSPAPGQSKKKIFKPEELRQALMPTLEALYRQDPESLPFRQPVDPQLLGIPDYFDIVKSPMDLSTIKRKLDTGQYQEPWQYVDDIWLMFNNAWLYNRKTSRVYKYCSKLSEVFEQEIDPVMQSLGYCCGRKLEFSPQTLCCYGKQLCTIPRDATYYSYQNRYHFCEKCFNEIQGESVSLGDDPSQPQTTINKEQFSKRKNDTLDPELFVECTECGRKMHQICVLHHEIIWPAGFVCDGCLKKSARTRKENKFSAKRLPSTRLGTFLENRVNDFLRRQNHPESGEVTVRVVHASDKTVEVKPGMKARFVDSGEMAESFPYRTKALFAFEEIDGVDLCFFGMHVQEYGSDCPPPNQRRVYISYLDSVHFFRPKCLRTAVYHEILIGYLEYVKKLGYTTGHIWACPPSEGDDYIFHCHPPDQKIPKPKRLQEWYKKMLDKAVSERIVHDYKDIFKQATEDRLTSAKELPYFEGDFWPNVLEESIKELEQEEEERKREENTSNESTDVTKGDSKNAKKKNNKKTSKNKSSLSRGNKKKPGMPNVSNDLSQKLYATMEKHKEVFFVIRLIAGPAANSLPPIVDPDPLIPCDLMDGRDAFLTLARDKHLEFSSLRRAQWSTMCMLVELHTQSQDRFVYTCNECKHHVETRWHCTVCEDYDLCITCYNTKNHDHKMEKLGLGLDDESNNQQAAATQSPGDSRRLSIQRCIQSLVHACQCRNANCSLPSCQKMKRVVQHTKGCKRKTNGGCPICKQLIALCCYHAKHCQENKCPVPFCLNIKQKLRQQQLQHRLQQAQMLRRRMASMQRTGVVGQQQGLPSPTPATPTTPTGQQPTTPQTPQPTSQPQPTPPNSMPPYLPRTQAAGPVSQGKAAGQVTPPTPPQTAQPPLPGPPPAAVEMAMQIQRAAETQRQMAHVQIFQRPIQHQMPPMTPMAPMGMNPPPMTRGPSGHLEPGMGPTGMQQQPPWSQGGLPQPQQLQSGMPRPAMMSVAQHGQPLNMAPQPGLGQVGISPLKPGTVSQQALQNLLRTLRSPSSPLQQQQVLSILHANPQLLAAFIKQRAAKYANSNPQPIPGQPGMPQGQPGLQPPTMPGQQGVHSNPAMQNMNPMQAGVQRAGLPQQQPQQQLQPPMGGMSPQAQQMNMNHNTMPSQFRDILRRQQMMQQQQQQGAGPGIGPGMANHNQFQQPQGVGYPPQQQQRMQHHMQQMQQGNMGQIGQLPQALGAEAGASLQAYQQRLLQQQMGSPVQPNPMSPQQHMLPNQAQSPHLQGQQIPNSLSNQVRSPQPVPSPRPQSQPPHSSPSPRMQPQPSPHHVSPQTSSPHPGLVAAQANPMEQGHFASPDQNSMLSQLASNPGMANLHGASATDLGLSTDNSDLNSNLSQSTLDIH

Row | Compound | AUC ([1]; intravenous, 1 mg/kg) | clearance ([1]; intravenous, 1 mg/kg) | half-life ([1]; intravenous, 1 mg/kg) | Vd ([1]; intravenous, 1 mg/kg) | AUC ([1]; oral, 10 mg/kg) | Cmax ([1]; oral, 10 mg/kg) | BA ([1]; oral, 10 mg/kg) | IC50 (recombinant p300) | Papp at 4 h [2, 3] | Papp at 4 h [2, 4] | solubility (Solubility test; [5]) | solubility (Solubility test; [6]) | IC50 (G-401 cells) | IC50 (Kuramochi cells)
1 | O=C1N[C@]2(CCc3cc(-c4cnn(C5CN(C6COC6)C5)c4)ccc32)C(=O)N1CC(=O)N(Cc1ccc(F)cc1)C1(C(F)(F)F)COC1 [Example 1, N-[(4-fluorophenyl)methyl]-2-[(1′S)-5′-{1-[1-(oxetan-3-yl)azetidin-3-yl]-1H-pyrazol-4-yl}-2,5-dioxo-2′,3′-dihydrospiro[imidazolidine-4,1′-inden]-1-yl]-N-[3-(trifluoromethyl)oxetan-3-yl]acetamide] | 575 ng·h/mL | 28.6 mL/min/kg | 1.1 h | 1.8 L/kg | 4350 ng·h/mL | 3770 ng/mL | 75.7% | 16 nM | 16.2 ×10⁻⁶ cm/s | 20.6 ×10⁻⁶ cm/s | – | – | 181 nM | –
2 | O=C1N[C@]2(C[C@@H](F)c3cc(-c4cnn(C5CN(C6COC6)C5)c4)ccc32)C(=O)N1CC(=O)N(Cc1ccc(F)cc1)C1(C(F)(F)F)CC(F)(F)C1 [Example 4, N-[3,3-difluoro-1-(trifluoromethyl)cyclobutyl]-2-[(1′S,3′R)-3′-fluoro-5′-{1-[1-(oxetan-3-yl)azetidin-3-yl]-1H-pyrazol-4-yl}-2,5-dioxo-2′,3′-dihydrospiro[imidazolidine-4,1′-inden]-1-yl]-N-[(4-fluorophenyl)methyl]acetamide] | 2100 ng·h/mL | 6.8 mL/min/kg | 2.3 h | 1.2 L/kg | 28700 ng·h/mL | 8300 ng/mL | 136.3% | 0.5 nM | 25.7 ×10⁻⁶ cm/s | 31.2 ×10⁻⁶ cm/s | – | – | 43 nM | –
3 | O=C1N[C@]2(CCc3cc(-c4cnn(C5CN(C6COC6)C5)c4)ccc32)C(=O)N1CC(=O)N(Cc1ccc(F)cc1)C1(C(F)(F)F)CC(F)(F)C1 [Example 5, N-[3,3-difluoro-1-(trifluoromethyl)cyclobutyl]-N-[(4-fluorophenyl)methyl]-2-[(1'S)-5′-{1-[1-(oxetan-3-yl)azetidin-3-yl]-1H-pyrazol-4-yl}-2,5-dioxo-2′,3′-dihydrospiro[imidazolidine-4,1′-inden]-1-yl]acetamide] | 875 ng·h/mL | 17.6 mL/min/kg | 1.75 h | 2.1 L/kg | 7300 ng·h/mL | 3500 ng/mL | 83.4% | 6.1 nM | 25.4 ×10⁻⁶ cm/s | 28.4 ×10⁻⁶ cm/s | – | – | 88 nM | –
4 | CN1CC(N(Cc2ccc(F)cc2)C(=O)CN2C(=O)N[C@]3(CCc4cc(-c5cnn(C)c5)ccc43)C2=O)(C(F)(F)F)C1 [Example 12, N-[(4-fluorophenyl)methyl]-2-[(1′S)-5′-(1-methyl-1H-pyrazol-4-yl)-2,5-dioxo-2′,3′-dihydrospiro[imidazolidine-4,1′-inden]-1-yl]-N-[1-methyl-3-(trifluoromethyl)azetidin-3-yl]acetamide] | 465 ng·h/mL | 35.7 mL/min/kg | 0.97 h | 1.6 L/kg | 1400 ng·h/mL | 1290 ng/mL | 30.0% | 6.3 nM | 24 ×10⁻⁶ cm/s | 28.9 ×10⁻⁶ cm/s | – | – | 82 nM | –
5 | CCn1cc(-c2ccc3c(c2)[C@H](F)C[C@]32NC(=O)N(CC(=O)N(Cc3ccc(F)cn3)C3(C(F)(F)F)CN(C)C3)C2=O)cn1 [Example 32, 2-[(1′S,3′R)-5′-(1-ethyl-1H-pyrazol-4-yl)-3′-fluoro-2,5-dioxo-2′,3′-dihydrospiro[imidazolidine-4,1′-inden]-1-yl]-N-[(5-fluoropyridin-2-yl)methyl]-N-[1-methyl-3-(trifluoromethyl)azetidin-3-yl]acetamide] | – | – | – | – | – | – | – | 0.4 nM | 15.4 ×10⁻⁶ cm/s | 26.6 ×10⁻⁶ cm/s | > 10000 µg/mL | > 10000 µg/mL | 5 nM | 53 nM

More lines, main results first:

Row | AUC ([1]; intravenous, 1 mg/kg) | clearance ([1]; intravenous, 1 mg/kg) | half-life ([1]; intravenous, 1 mg/kg) | Vd ([1]; intravenous, 1 mg/kg) | AUC ([1]; oral, 10 mg/kg) | Cmax ([1]; oral, 10 mg/kg) | BA ([1]; oral, 10 mg/kg) | IC50 (recombinant p300) | Papp at 4 h [2, 3] | Papp at 4 h [2, 4] | solubility (Solubility test; [5]) | solubility (Solubility test; [6]) | Compound | IC50 (G-401 cells) | IC50 (Kuramochi cells)
6 | – | – | – | – | – | – | – | 2.8 nM | 23.9 ×10⁻⁶ cm/s | 28.3 ×10⁻⁶ cm/s | – | – | CN1CC(N(Cc2ccc(F)cc2)C(=O)CN2C(=O)N[C@]3(C[C@@H](F)c4cc(-c5cnn(C)c5)c(F)cc43)C2=O)(C(F)(F)F)C1 [Example 29, 2-[(1′S,3′R)-3′,6′-difluoro-5′-(1-methyl-1H-pyrazol-4-yl)-2,5-dioxo-2′,3′-dihydrospiro[imidazolidine-4,1′-inden]-1-yl]-N-[(4-fluorophenyl)methyl]-N-[1-methyl-3-(trifluoromethyl)azetidin-3-yl]acetamide] | 17 nM | –
7 | – | – | – | – | – | – | – | 1.5 nM | 30.6 ×10⁻⁶ cm/s | 35 ×10⁻⁶ cm/s | 1700 µg/mL (≈ 2.76 mM) | 8800 µg/mL (≈ 14.3 mM) | CCn1cc(-c2ccc3c(c2)[C@H](F)C[C@]32NC(=O)N(CC(=O)N(Cc3ccc(F)cc3)C3(C(F)(F)F)CN(C)C3)C2=O)cn1 [Example 30, 2-[(1′S,3′R)-5′-(1-ethyl-1H-pyrazol-4-yl)-3′-fluoro-2,5-dioxo-2′,3′-dihydrospiro[imidazolidine-4,1′-inden]-1-yl]-N-[(4-fluorophenyl)methyl]-N-[1-methyl-3-(trifluoromethyl)azetidin-3-yl]acetamide] | 2 nM | 10 nM
8 | – | – | – | – | – | – | – | 1 nM | 31.3 ×10⁻⁶ cm/s | 34.9 ×10⁻⁶ cm/s | 1400 µg/mL (≈ 2.22 mM) | 7100 µg/mL (≈ 11.3 mM) | CC(C)n1cc(-c2ccc3c(c2)[C@H](F)C[C@]32NC(=O)N(CC(=O)N(Cc3ccc(F)cc3)C3(C(F)(F)F)CN(C)C3)C2=O)cn1 [Example 31, 2-{(1′S,3′R)-3′-fluoro-2,5-dioxo-5′-[1-(propan-2-yl)-1H-pyrazol-4-yl]-2′,3′-dihydrospiro[imidazolidine-4,1′-inden]-1-yl}-N-[(4-fluorophenyl)methyl]-N-[1-methyl-3-(trifluoromethyl)azetidin-3-yl]acetamide] | 1 nM | 8 nM
9 | – | – | – | – | – | – | – | 5.2 nM | 31.2 ×10⁻⁶ cm/s | 33.7 ×10⁻⁶ cm/s | – | – | CN1CC(N(Cc2ccc(C(F)(F)F)cc2)C(=O)CN2C(=O)N[C@]3(C[C@@H](F)c4cc(-c5cnn(C)c5)ccc43)C2=O)(C(F)(F)F)C1 [Example 35, 2-[(1′S,3′R)-3′-fluoro-5′-(1-methyl-1H-pyrazol-4-yl)-2,5-dioxo-2′,3′-dihydrospiro[imidazolidine-4,1′-inden]-1-yl]-N-[1-methyl-3-(trifluoromethyl)azetidin-3-yl]-N-{[4-(trifluoromethyl)phenyl]methyl}acetamide] | 72 nM | –
